This note sets out measurements from patent publication USRE36854E, “Vitamin D compounds and method of preparing these compounds” (Duphar International Research B.V., priority 1997, dated 2000).

The test system of assay [1] is intestinal cancer cell line Caco-2. Description: Caco-2 assay for intestinal calcium transport (45Ca2+ influx). Format: cell-based. The conditions noted are these: for relative increase in Ca^2+ influx (1α,25-DHCC = 100): 10^-9 M. Here is the method: The most well-known effect of 1α,25-DHCC is its action on the calcium metabolism, the calciotropic effect. Calciotropic target organs are the intestine, the bone and the kidney. The vitamin D compounds according to the invention are dissolved in ethanol and tested in the so-called Caco-2 assay for intestinal calcium (Ca) transport. In this assay, the vitamin D-induced influx of ^45 Ca^2+ is measured in monolayers of the intestinal cancer cell line Caco-2. This influx is corrected for the concentration-driven Ca^2+ influx and is a measure for the Ca transport across the intestinal wall. The Caco-2 cells are known to have vitamin D receptors. Increased intestinal calcium transport can be the first step leading to a rise in blood calcium levels (and eventually to hypercalcemia). […] The values in the table represent the relative increase in Ca^2 + influx (the value for 1α,25-DHCC is arbitrarily fixed at 100).

Assay [2] relates to HL-60 cells / intestinal Ca^2+ transport. Briefly: Cell differentiation versus calciotropic effect (ratio of HL-60 NBT reduction to intestinal Ca2+ transport). Format: cell-based, human. The note with it: for ratio relative to DHCC: fraction normalised to 1α,25-DHCC = 1.00; for fraction (concentration for 50% NBT reduction in HL-60 cells / concentration for half-maximal increase in intestinal Ca^2+ transport): smaller ratio = higher relative cell differentiating capacity; for selectivity of action / better ratio than 1α,25-DHCC (fold): differentiation versus intestinal Ca transport. The source says:
Therefore, it should be very advantageous to develop compounds with a high selectivity of biological action. In other words, compounds in which the ratio between the induction of cell differentiation and calciotropic effects, e.g. the stimulation of intestinal Ca transport, is changed compared to 1α,25-DHCC. The ratio between differentiation-inducing capacity and the stimulation of intestinal Ca transport is defined as the fraction between the concentration at which 50% NBT reduction in HL-60 cells is obtained, and the concentration at which a half-maximal increase in intestinal Ca^2+ transport is reached. The smaller the ratio, the higher the relative cell differentiating capacity.

Assay [3] concerns rabbit kidney cells. Description: Rabbit kidney cell assay (45Ca2+ reabsorption). Format: cell-based. The conditions noted are these: rabbit renal cell cultures; for increase in Ca^2+ -reabsorption: 10^-9 M. Here is the method:
Together with the intestine and the bone, the kidney is one of the major target organs of 1α,25-DHCC. The kidney plays an extremely important role in calcium homeostasis, since about 98% of the calcium has to be reabsorbed in the kidneys in order to prevent calcium loss and hypocalcemia. The vitamin D compounds according to the invention are dissolved in ethanol and tested in the rabbit kidney cell assay. In this assay, reabsorption of ^45 Ca^2+ is measured in monolayers of rabbit kidney cells. The cells are isolated by immunodissection of connecting tubules with the aid of monoclonal antibodies. […] The values in the Table represent the increase in Ca^2+ -reabsorption in mmol/cm^2 /h.

For assay [4], the system named is human leukemic cell line HL-60. Briefly: HL-60 cell differentiation assay (NBT reduction, non-specific esterase, May-Grunwald Giemsa). Type of assay: cell-based. The note with it: for induction of differentiation and maturation of the HL-60 cells: 10^-12 to 10^-6 M; for induction of differentiation and maturation of the HL-60 cells / differentiation in the cytological test (non-specific esterase and May-Grunwald Giemsa) / NBT-reduction inducing capacity relative to 1α,25-DHCC (fold stronger): HL-60; for concentration range of optimum effect: HL-60, cytological test; for NBT-reduction inducing capacity relative to 1α,25-DHCC (fold stronger): FIGS. 3 and 4. Here is the method:
Vitamin D compounds according to the invention are dissolved in ethanol in concentrations ranging from 10^-12 to 10^-6 M and tested for their capacity to induce cell differentiation in a HL-60 assay. In this assay, morphologic and biochemical examination of the human leukemic cell line HL-60 is done, in order to establish whether cell differentiation has taken place.
Differentiation is expressed as the maturation parameters nitroblue tetrazolium (NBT) reduction, non-specific esterase, and as the percentage of mature cells beyond the myelocyte stage which is visible after staining with May-Grunwald Giemsa. After culturing with the known 1α,25-DHCC or with vitamin D compounds of the invention, the percentage of cells containing black formazan deposits is determined. An increase in the percentage of NBT reducing cells indicates an increase in cell differentiation.
Proliferation and vitality of the cell cultures are established by counting the number of cells and by the trypan blue exclusion method.

Assay [5] has as its target T1, calf thymus intracellular vitamin D receptor (VDR) (Bos taurus, UniProt Q28037).
T1 construct: 3H-1α,25-DHCC displacement
T1 sequence (Q28037 1-426): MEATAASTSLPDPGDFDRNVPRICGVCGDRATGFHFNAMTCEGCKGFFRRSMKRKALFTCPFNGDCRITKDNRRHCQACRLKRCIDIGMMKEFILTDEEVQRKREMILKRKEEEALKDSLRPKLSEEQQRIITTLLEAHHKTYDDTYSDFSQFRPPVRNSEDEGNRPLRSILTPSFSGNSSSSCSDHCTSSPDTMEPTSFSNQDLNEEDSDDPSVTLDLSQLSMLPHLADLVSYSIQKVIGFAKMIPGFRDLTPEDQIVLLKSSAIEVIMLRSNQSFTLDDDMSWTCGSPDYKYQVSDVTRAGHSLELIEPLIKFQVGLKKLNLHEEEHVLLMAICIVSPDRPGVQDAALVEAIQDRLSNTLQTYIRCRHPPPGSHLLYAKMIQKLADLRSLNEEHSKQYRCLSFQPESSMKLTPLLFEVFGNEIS
Briefly: Affinity to intracellular vitamin D receptor (displacement of 3H-1α,25-DHCC). Format: binding. The note with it: 10^-13 to 10^-7 M. The text has this: In this assay, ^3 H-1α,25-dihydroxycholecalciferol (^3 H-1α,25-DHCC), which is specifically bound to the VDR, is replaced by the tested compounds. Especially the tested compounds 11, 13 and 14 have a very high VDR-affinity. A high VDR-affinity is indicative for biologically active substances.

In assay [6] the target is T2, human vitamin D binding protein (DBP) (Homo sapiens, UniProt P02774).
T2 sequence (P02774 17-474): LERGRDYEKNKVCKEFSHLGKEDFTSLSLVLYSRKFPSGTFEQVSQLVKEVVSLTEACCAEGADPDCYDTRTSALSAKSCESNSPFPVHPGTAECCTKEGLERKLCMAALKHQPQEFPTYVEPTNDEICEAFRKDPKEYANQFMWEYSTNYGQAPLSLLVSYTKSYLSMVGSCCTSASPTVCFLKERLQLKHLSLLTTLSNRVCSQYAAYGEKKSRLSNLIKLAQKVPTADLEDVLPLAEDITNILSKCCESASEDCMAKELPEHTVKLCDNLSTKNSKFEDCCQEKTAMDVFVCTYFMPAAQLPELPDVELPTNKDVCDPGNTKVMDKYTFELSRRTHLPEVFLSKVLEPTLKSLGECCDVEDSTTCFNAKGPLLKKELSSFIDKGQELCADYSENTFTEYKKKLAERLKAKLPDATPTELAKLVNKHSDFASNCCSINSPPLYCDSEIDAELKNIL
Briefly: Affinity to vitamin D binding protein (competition with 3H-1α,25-DHCC). The conditions noted are these: DBP purified from total human serum; 10^-11 to 2.5×10^-6 M; FIGS. 1 and 2. Here is the method: Vitamin D binding protein (DBP) is the specific carrier for vitamin D and its metabolites in blood. The biological activity of vitamin D compounds depends on their binding to DBP, because strong binding to DBP will reduce the intracellular access to the VDR. Binding to the DBP may also influence the half-life of the vitamin D derivatives in circulation. Weak binders are rapidly matabolized, which is a favourable aspect in topical application. In the assay DBP is incubated with ^3 H-1α,25-DHCC and 1α,25-DHCC or with several vitamin D compounds according to the invention. To this purpose, the vitamin compounds are dissolved in ethanol in concentrations ranging from 10^-11 to 2.5×10^-6 M. The percentage bound/unbound ^3 H-1α,25-DHCC is then calculated. DBP is purified from total human serum. The results are shown in the appended FIGS. 1 and 2. FIGS. 1 and 2 show the binding of vitamin D compounds to human vitamin D binding protein. [^3 H]1α,25(OH)2 D3 =^3 H-1α,25-DHCC; in both Figures .circle-solid.=1α,25-DHCC (known compound); in FIG. 1 .tangle-solidup.=compound 13 and .gradient.=compound 14; in FIG. 2 Δ=compound 11.

Consider `C=C1/C(=C\C=C2/CCC[C@]3(C)[C@@H]([C@H](C)CCCC(C)(C)O)CC[C@@H]23)C[C@@H](O)C[C@@H]1O` [1α,25-DHCC, 1α,25-dihydroxycholecalciferol, reference compound], for which the “relative increase in Ca^2+ influx (1α,25-DHCC = 100)” value (from here on “relative increase in Ca^2+ influx”) in assay [1] (experiment 1) came out at 100. Besides, in assay [1] (experiment 2), the “relative increase in Ca^2+ influx” value is given as 100. In assay [2], the “ratio relative to DHCC” value came to 1.00 and the “fraction (concentration for 50% NBT reduction in HL-60 cells / concentration for half-maximal increase in intestinal Ca^2+ transport)” value amounted to 107. Also, in assay [3], the “increase in Ca^2+ -reabsorption” value was 13.4 mmol/cm^2 /h. Further, in assay [4], the “induction of differentiation and maturation of the HL-60 cells” value was “induce differentiation and maturation”.

Turning to `C=C1/C(=C\C=C2/CCC[C@@]3(C)C2CCC3[C@H](C)CCCC(O)(C2CC2)C2CC2)C[C@@H](O)C[C@@H]1O` (stereo partly drawn) [Compound 11], the “stimulation of intestinal calcium absorption compared with 1α,25-DHCC” value in assay [1] is given as “weaker stimulators”. In assay [1] (experiment 1), the “relative increase in Ca^2+ influx” value worked out at 79. Also, in assay [2], the “selectivity of action / better ratio than 1α,25-DHCC (fold)” value is 8 ×, the “ratio relative to DHCC” value came out at 0.13 and the “fraction (concentration for 50% NBT reduction in HL-60 cells / concentration for half-maximal increase in intestinal Ca^2+ transport)” value amounted to 14.4. Further, in assay [3], the “stimulation of renal Ca-reabsorption compared with compound 12 and 1α,25-DHCC” value was “weaker stimulators”; the “increase in Ca^2+ -reabsorption” value amounted to 2.4 mmol/cm^2 /h. For the same compound, in assay [4], the “differentiation in the cytological test (non-specific esterase and May-Grunwald Giemsa)” value was “good differentiators”; the “concentration range of optimum effect” value is recorded as 10^-8 to 10^-7 M; the “induction of differentiation and maturation of the HL-60 cells” value was “induce differentiation and maturation”; the “NBT-reduction inducing capacity relative to 1α,25-DHCC (fold stronger)” value is on record as “about 5 ×”. Besides, the VDR-affinity entry in assay [5] is on record as “very high”. Moreover, the “binding to the DBP, compared to the known 1α,25-DHCC” value in assay [6] is “bind rather weakly”.

For `C=C1/C(=C\C=C2/CCC[C@@]3(C)C2CCC3[C@H](C)CCCC(O)(C(C)(C)C)C(C)(C)C)C[C@@H](O)C[C@@H]1O` (stereo partly drawn) [Compound 12], in assay [1] (experiment 1), the “relative increase in Ca^2+ influx” value is given as 99. In addition, in assay [2], the “selectivity of action / better ratio than 1α,25-DHCC (fold)” value is recorded as 4 ×, the “ratio relative to DHCC” value is on record as 0.28 and the “fraction (concentration for 50% NBT reduction in HL-60 cells / concentration for half-maximal increase in intestinal Ca^2+ transport)” value turned out to be 29.7. In addition, in assay [3], the “increase in Ca^2+ -reabsorption” value is given as 12.8 mmol/cm^2 /h. In assay [4], the “induction of differentiation and maturation of the HL-60 cells” value is “induce differentiation and maturation”; the “NBT-reduction inducing capacity relative to 1α,25-DHCC (fold stronger)” value is reported as “about 5 ×”.

Regarding `C=C1/C(=C\C=C2/CCC[C@@]3(C)C2CCC3[C@H](C)CCCC(O)(C(C)C)C(C)C)C[C@@H](O)C[C@@H]1O` (stereo partly drawn) [Compound 13], the “stimulation of intestinal calcium absorption compared with 1α,25-DHCC” value in assay [1] is listed as “weaker stimulators”. Moreover, the “relative increase in Ca^2+ influx” value in assay [1] (experiment 2) turned out to be 65. Moreover, in assay [2], the “selectivity of action / better ratio than 1α,25-DHCC (fold)” value is 50 ×, the “ratio relative to DHCC” value came out at 0.02 and the “fraction (concentration for 50% NBT reduction in HL-60 cells / concentration for half-maximal increase in intestinal Ca^2+ transport)” value is 2.5. In assay [3], the “stimulation of renal Ca-reabsorption compared with compound 12 and 1α,25-DHCC” value is on record as “weaker stimulators”; the “increase in Ca^2+ -reabsorption” value is given as -3.7 mmol/cm^2 /h. In assay [4], the “differentiation in the cytological test (non-specific esterase and May-Grunwald Giemsa)” value is listed as “good differentiators”; the “concentration range of optimum effect” value is recorded as 10^-8 to 10^-7 M; the “induction of differentiation and maturation of the HL-60 cells” value was “induce differentiation and maturation”; the “NBT-reduction inducing capacity relative to 1α,25-DHCC (fold stronger)” value is “about 10 ×”. The VDR-affinity result in assay [5] is reported as “very high”. In addition, in assay [6], the “binding to the DBP, compared to the known 1α,25-DHCC” value is “very weak binder”.

For the compound `C=C1/C(=C\C=C2/CCC[C@@]3(CC)C2CCC3[C@H](C)CCCC(O)(C(C)C)C(C)C)C[C@@H](O)C[C@@H]1O` (stereo partly drawn) [Compound 14], in assay [1], the “stimulation of intestinal calcium absorption compared with 1α,25-DHCC” value was “weaker stimulators”. Further, the “relative increase in Ca^2+ influx” value in assay [1] (experiment 2) stood at 78. For the same compound, in assay [2], the “selectivity of action / better ratio than 1α,25-DHCC (fold)” value amounted to 50 ×, the “ratio relative to DHCC” value worked out at 0.02 and the “fraction (concentration for 50% NBT reduction in HL-60 cells / concentration for half-maximal increase in intestinal Ca^2+ transport)” value is on record as 2.6. For the same compound, in assay [4], the “induction of differentiation and maturation of the HL-60 cells” value was “induce differentiation and maturation”; the “NBT-reduction inducing capacity relative to 1α,25-DHCC (fold stronger)” value is on record as “about 10 ×”. In assay [5], the VDR-affinity result is reported as “very high”. Also, in assay [6], the “binding to the DBP, compared to the known 1α,25-DHCC” value was “bind rather weakly”.
